In one experiment the test system is MP4 cells. The experiment can be described thus: Culture of MP4 petunia suspension cells in MS media containing glyphosate. The note with it: 0.5 mM glyphosate (sodium salt). The experiment is classed as cell-based. As for the experimental part: The starting cell line, designated as the MP4 line, was derived from a Mitchell diploid petunia (see, e.g., Ausubel 1980). The MP4 cells were suspended in Murashige and Skoog (MS) culture media, (GIBCO, Grand Island, N.Y.) All transfer involved the transfer of 10 ml of suspension culture into 50 ml of fresh media. Cultivation periods until the next transfer ranged from 10 to 14 days, and were based on visual indications that the culture was approaching saturation.
After two transfers, the surviving cells were transferred into fresh media containing 1.0 mM glyphosate. After two transfers at 1.0 mM, the surviving cells were transferred sequentially into 2.5 mM glyphosate, 5.0 mM glyphosate, and 10 mM glyphosate. The MP4-G cells were subsequently shown (by a Southern blot) to have about 15-20 copies of the EPSPS gene, due to a genetic process called "gene amplification" (see, e.g., Schimke 1982). Although spontaneous mutations might have occurred during the replication of any cell, there is no indication that any mutation or other modification of the EPSPS gene occurred during the gene amplification process. The only known difference between the MP4 and the MP4-G cells is that the MP4-G cells contain multiple copies of an EPSPS gene and possibly other genes located near it on the chromosomes of the cells.

For another experiment, the system named is tomato leaf fragments. The experiment can be described thus: Tomato leaf callus assay on glyphosate. To be noted: 0.5 mM glyphosate, 10 days. Type of experiment: cell-based, tomato VF36. On the procedure: Sterile seedlings of VF36 tomato are grown on water agar. Hypocotyls and cotyledons are excised and cultured for 2 days on MS medium containing B5 vitamins, 30 g/l sucrose and 1 mg/l benzyladenine and 0.1 mg/l indole acetic acid. The seedlings are then infected with the A. tumefaciens vector containing the chimeric EPSPS gene described in Example 2, by immersing for about 30 seconds in a culture of A. tumefaciens containing the chimeric EPSP synthase gene that had been diluted to 10^7 bacteria/ml. Explants are obtained by cutting sections from the seedlings. The explants are blotted dry and incubated as described previously in Example 2 except that the medium contains only 10% of standard concentration of MS salts. After 2 days of coculture, the explants are transferred to selective medium containing 100 ug/ml kanamycin. Transformed tomato plants grow from the explants. Leaves from these plants are tested for glyphosate resistance using a leaf callus assay described below. Tomato leaf fragments from plants containing vector alone (pMON200) or the pMON546 chimeric EPSPS gene are incubated on callus medium described above containing 0.5 mM glyphosate.

The subject of experiment [1] is transgenic canola lines. The experiment can be described thus: Glyphosate spray test, reproductive scores of transgenic canola (Example 20). Type of experiment: in vivo, Brassica napus. The note with it: 0.28 Kg/ha, 28 days after spraying; lines with A. thaliana meristematic promoter (pMON992) versus enhanced CaMV35S promoter only (pMON987); FIG. 11. As for the experimental part:
The transgenic, differentiated plants obtained containing the variant EPSP synthase gene as described above were analyzed for resistance to glyphosate. The transgenic plants containing the Arabidopsis EPSP synthase gene (as described) directed by the Arabidopsis thaliana promoter as also described above contained pMON992 while those plants containing the Arabidopsis EPSP synthase gene driven only by the enhanced CaMV35S promoter contained pMON987. These transgenic plants were planted and the seed from the R° plants harvested, threshed and dried before planting for a glyphosate spray test. The progeny were planted in 4-inch square pots of Metro 350 and three types of slow release fertilizers. A goal of twenty seedlings from each R° plant is desirable for testing. Germination frequency is usually high but overplanting ensures that twenty seedlings are present. The plants were thinned down by selecting the twenty most vigorous and erect seedlings seven to ten days after planting. A negative control (non-transformed, "Westar" variety) was planted at the same time to maintain quality and display the results. The plants were maintained and grown in a greenhouse environment. A sixteen-hour photoperiod and a temperature of 21° C. (day) and 15° C. (night) was maintained. Water soluble Peters Pete Lite fertilizer with an analysis of 20-19-18 was applied once per week or as needed. […]

Experiment [2] has as its system transgenic canola lines. The experiment can be described thus: Glyphosate spray test, reproductive scores of transgenic canola (Example 21). The experiment is classed as in vivo. From the text: Transgenic plants containing the Arabidopsis EPSP synthase gene containing a single glycine to alamine mutation at […] 101 driven by either the FMV promoter or the CaMVe35S promoter were obtained and analyzed for resistance to glyphosate. The transgenic plants containing the Arabidopsis EPSP synthase gene (as described above) directed by the FMV promoter contained pMON996, FIG. 12 and FIG. 13, while those plants containing the enhanced CaMVe35S promoter contained pMON899. These transgenic plants were planted and the seed from the Ro plants harvested, threshed and dried before planting for a glyphosate spray test. The progeny were planted in 4-inch square pots of Metro 350 and three types of slow release fertilizers. A goal of twenty seedlings from each Ro plant is desirable for testing. Germination frequency is usually high but overplanting ensures that twenty seedlings are present. The plants were thinned down by selecting the twenty most vigorous and erect seedlings seven to ten days after planting. A negative control (non-transformed, "Westar" variety) was planted at the same time to maintain quality and display the results. The plants were maintained and grown in a greenhouse environment. A sixteen-hour photoperiod and a temperature of 21° C. (day) and 15° C. (night) was maintained. […]

Consider `O=C(O)CNCP(=O)(O)O` [glyphosate, N-phosphonomethylglycine], for which, in the experiment with MP4 cells (estimated, read-out: cells which survived, share of the starting population), the viability at 500 µM was less than 1%. In the experiment with MP4 cells (MS media), the “ability of cells to reproduce” value is listed as “large majority of cells were unable to reproduce”. Besides, the “callus growth from leaves” value is “completely inhibited and showed no signs of callus growth” in the experiment on tomato leaf fragments (control leaves (pMON200 vector alone)); “produced callus” in the experiment with tomato leaf fragments (leaves from plants transformed with chimeric EPSPS gene (pMON546)). Besides, the “reproductive scores (scale 0-10)” value in the experiment with transgenic canola lines [1] is given as “higher reproductive scores”; with transgenic canola lines [2] (0.28 Kg/ha, 28 days after spraying, three of the seven lines with FMV promoter (pMON996) versus CaMVe35S lines (pMON899), FIG. 14), “better than any of the scores from lines containing the CaMVe35S promoter (pMON899)”. Moreover, the “level of glyphosate tolerance” value with transgenic canola lines [2] (transgenic lines containing pMON899 (CaMVe35S promoter) used in FIG. 14) is given as “highest levels of glyphosate tolerance among 150 lines previously tested”.
